Laboratory results reported in BigSolDB 2.1.

O=C1CCCC(=O)O1
Settings | solubility (mole fraction)
in acetic acid, 279.65 K | 0.0783
in acetic acid, 282.25 K | 0.0967
in acetic acid, 284.55 K | 0.119
in acetic acid, 287.05 K | 0.152
in acetic acid, 289.55 K | 0.183
in acetic acid, 291.95 K | 0.223
in acetic acid, 294.25 K | 0.27
in acetic acid, 296.65 K | 0.323
in acetic acid, 299.15 K | 0.376
in acetic acid, 302.15 K | 0.436
in acetic acid, 304.05 K | 0.502
in acetic acid, 306.25 K | 0.557
in acetyl acetate, 278.45 K | 0.153
in acetyl acetate, 282.45 K | 0.205
in acetyl acetate, 283.85 K | 0.231
in acetyl acetate, 285.45 K | 0.259
in acetyl acetate, 287.65 K | 0.299
in acetyl acetate, 290.55 K | 0.342
in acetyl acetate, 293.05 K | 0.388
in acetyl acetate, 296.95 K | 0.437
in acetyl acetate, 300.25 K | 0.502
in acetyl acetate, 304.05 K | 0.562
in tetrachloromethane, 282.25 K | 0.00064
in tetrachloromethane, 285.45 K | 0.00073
in tetrachloromethane, 288.05 K | 0.00097
in tetrachloromethane, 291.15 K | 0.00141
in tetrachloromethane, 293.95 K | 0.00182
in tetrachloromethane, 295.95 K | 0.00225
in tetrachloromethane, 300.25 K | 0.00268
in tetrachloromethane, 303.25 K | 0.00321
in tetrachloromethane, 306.25 K | 0.0039
in tetrachloromethane, 309.85 K | 0.00487
in tetrachloromethane, 312.95 K | 0.00544
in tetrachloromethane, 315.55 K | 0.00586
in tetrachloromethane, 318.25 K | 0.00619
in tetrachloromethane, 320.45 K | 0.00639
